Read-outs that look alike come from different tables or passages of the source.
Columns and labels:
[1] = target: PI3K-δ (PI3K(p1108/p857) (h)) (Homo sapiens, UniProt O00329); assay: Evaluation of inhibitory activity against PI3K-δ (HTRF kinase assay); format: biochemical; details: for inhibition at 0.1 µM: read-out: EXP_VALUE(% Inhibition) PI3K-δ 0.1 μM; for inhibition at 0.01 µM: compound concentration 0.01 μM, read-out: EXP_VALUE(% Inhibition) PI3K-δ 0.01 μM
Procedure, shortened: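 HTRF read-out (665/620 nm ratio ×10000) used Eu-labelled anti-GST, GST-tagged GRP1 PH domain and streptavidin-allophycocyanin after EDTA/PIP3 stop.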

DNA-PK(h) = DNA-PK(h) (Homo sapiens, UniProt P78527); assay: Evaluation of inhibitory activity against DNA-PK (HTRF kinase assay, GST-cMyc-p53 substrate); format: biochemical; details: for inhibition at 0.1 µM: read-out: EXP_VALUE(% Inhibition) DNA-PK(h) 0.1 μM; for inhibition at 0.01 µM: compound concentration 0.01 μM, read-out: EXP_VALUE(% Inhibition) DNA-PK(h) 0.01 μM
Procedure, shortened: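 Human DNA-PK with 50 μM GST-cMyc-p53 substrate; reaction started with Mg/ATP, run 30 min at room temperature, stopped with EDTA. Phospho-Ser15 p53 detected by HTRF (Eu anti-phospho-Ser15, d2 anti-GST), signal = 10000×(Em 665/Em 620).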

PI3K-δ (PI3K(p1108/p857) (h)), sequence (O00329 whole entry, the tested form may be a part): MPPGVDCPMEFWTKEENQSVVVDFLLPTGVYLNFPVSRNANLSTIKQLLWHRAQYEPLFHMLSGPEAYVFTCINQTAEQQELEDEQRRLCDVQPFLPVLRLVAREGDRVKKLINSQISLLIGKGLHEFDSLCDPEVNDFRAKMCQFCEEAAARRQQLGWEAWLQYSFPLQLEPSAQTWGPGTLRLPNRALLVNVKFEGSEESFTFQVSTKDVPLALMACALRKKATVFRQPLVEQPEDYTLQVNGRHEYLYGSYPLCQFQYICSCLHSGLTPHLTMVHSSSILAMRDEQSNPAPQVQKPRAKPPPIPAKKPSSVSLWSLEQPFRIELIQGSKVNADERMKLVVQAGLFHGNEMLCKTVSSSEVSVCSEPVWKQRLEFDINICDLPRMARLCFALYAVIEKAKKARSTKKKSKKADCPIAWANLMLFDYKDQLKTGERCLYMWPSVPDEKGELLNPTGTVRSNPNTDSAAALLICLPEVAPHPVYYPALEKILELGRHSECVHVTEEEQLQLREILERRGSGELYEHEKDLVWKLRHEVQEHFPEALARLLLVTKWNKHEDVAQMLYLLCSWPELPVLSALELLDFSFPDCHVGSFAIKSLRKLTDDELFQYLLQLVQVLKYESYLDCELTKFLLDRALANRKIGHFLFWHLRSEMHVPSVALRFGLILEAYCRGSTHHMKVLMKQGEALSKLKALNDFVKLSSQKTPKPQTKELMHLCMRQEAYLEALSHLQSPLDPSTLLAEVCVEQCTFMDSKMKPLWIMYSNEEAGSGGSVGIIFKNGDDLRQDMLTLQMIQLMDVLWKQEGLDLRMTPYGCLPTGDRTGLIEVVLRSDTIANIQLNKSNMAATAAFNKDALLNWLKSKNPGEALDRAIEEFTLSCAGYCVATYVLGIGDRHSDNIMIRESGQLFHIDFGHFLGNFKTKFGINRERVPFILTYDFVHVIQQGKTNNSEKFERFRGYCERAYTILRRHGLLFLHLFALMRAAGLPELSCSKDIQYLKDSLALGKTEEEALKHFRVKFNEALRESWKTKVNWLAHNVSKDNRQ
PI3K-δ (PI3K(p1108/p857) (h)), sequence (P27986 whole entry partner, the tested form may be a part): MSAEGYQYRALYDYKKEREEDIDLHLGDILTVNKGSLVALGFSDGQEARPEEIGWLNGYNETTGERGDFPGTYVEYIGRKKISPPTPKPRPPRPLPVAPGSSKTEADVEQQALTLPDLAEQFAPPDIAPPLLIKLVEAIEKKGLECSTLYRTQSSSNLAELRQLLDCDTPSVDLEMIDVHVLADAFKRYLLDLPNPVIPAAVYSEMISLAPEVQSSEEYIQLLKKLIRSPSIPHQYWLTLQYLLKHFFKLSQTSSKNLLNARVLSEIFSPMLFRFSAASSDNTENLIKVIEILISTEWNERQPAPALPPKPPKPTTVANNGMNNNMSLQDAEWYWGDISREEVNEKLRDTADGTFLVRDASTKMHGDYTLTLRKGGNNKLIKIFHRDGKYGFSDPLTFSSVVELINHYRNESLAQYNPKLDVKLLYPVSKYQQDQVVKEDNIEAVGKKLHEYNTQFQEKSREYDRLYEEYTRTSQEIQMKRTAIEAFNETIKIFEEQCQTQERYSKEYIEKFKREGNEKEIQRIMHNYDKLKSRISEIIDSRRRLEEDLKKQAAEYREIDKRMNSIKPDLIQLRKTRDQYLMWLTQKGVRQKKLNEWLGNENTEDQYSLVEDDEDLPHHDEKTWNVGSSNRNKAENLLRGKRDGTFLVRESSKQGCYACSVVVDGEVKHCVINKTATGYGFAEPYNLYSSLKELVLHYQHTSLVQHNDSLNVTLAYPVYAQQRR

inhibition at 0.1 µM ([1]; compound at 0.1 μM)	inhibition at 0.1 µM (DNA-PK(h); compound at 0.1 μM)	inhibition at 0.01 µM [1]	inhibition at 0.1 µM ([1]; compound concentration 0.1 μM)	inhibition at 0.01 µM (DNA-PK(h))	inhibition at 0.1 µM (DNA-PK(h); compound concentration 0.1 μM)	SMILES
71%	16%					C[C@H](Nc1ncnc2[nH]ccc(=O)c12)c1c(Cl)c2cccc(-c3cnc(Cl)nc3)c2c(=O)n1-c1ccccc1 [Example 402, (S)-4-((1-(4-chloro-8-(2-chloropyrimidin-5-yl)-1-oxo-2-phenyl-1,2-dihydroisoquinolin-3-yl)ethyl)amino)pyrido[2,3-d]pyrimidin-5(8H)-one]
17%	53%					CCC[S@](=N)(=O)c1cccc2c(Cl)c([C@H](C)Nc3ncnc4[nH]ccc(=O)c34)n(-c3ccccc3)c(=O)c12 [Example 409, 4-(((S)-1-(4-chloro-1-oxo-2-phenyl-8-((S)-propylsulfonimidoyl)-1,2-dihydroisoquinolin-3-yl)ethyl)amino)pyrido[2,3-d]pyrimidin-5(8H)-one]
		46%	78%	18%	56%	C[C@H](Nc1ncnc2[nH]ccc(=O)c12)c1c(Cl)c2cccc(N3CCN(c4ccccc4O)CC3)c2c(=O)n1-c1ccccc1 [Example 78, (S)-4-((1-(4-chloro-8-(4-(2-hydroxyphenyl)piperazin-1-yl)-1-oxo-2-phenyl-1,2-dihydroisoquinolin-3-yl)ethyl)amino)pyrido[2,3-d]pyrimidin-5(8H)-one]
16%	-2%					C[C@H](Nc1ncnc2[nH]ccc(=O)c12)c1c(Cl)c2cccc(Sc3nc[nH]n3)c2c(=O)n1-c1ccccc1 [Example 400, (S)-4-((1-(8-((1H-1,2,4-triazol-3-yl)thio)-4-chloro-1-oxo-2-phenyl-1,2-dihydroisoquinolin-3-yl)ethyl)amino)pyrido[2,3-d]pyrimidin-5(8H)-one]
		95%		87%		Cc1cc(-c2cccc3c(Cl)c([C@H](C)Nc4ncnc5[nH]ccc(=O)c45)n(-c4ccccc4)c(=O)c23)cnc1O [Example 58, (S)-4-((1-(4-chloro-8-(6-hydroxy-5-methylpyridin-3-yl)-1-oxo-2-phenyl-1,2-dihydroisoquinolin-3-yl)ethyl)amino)pyrido[2,3-d]pyrimidin-5(8H)-one]
		109%	117%	15%	55%	C[C@H](Nc1ncnc2[nH]ccc(=O)c12)c1c(Cl)c2cccc(/C(N)=N/O)c2c(=O)n1-c1ccccc1 [Example 350, (S,Z)-4-chloro-N′-hydroxy-1-oxo-3-(1-((5-oxo-5,8-dihydropyrido[2,3-d]pyrimidin-4-yl)amino)ethyl)-2-phenyl-1,2-dihydroisoquinoline-8-carboximidamide]
		83%	114%	80%	95%	C[C@H](Nc1ncnc2[nH]ccc(=O)c12)c1c(Cl)c2cccc(C#Cc3cccnc3)c2c(=O)n1-c1ccccc1 [Example 307, (S)-4-((1-(4-chloro-1-oxo-2-phenyl-8-(pyridin-3-ylethynyl)-1,2-dihydroisoquinolin-3-yl)ethyl)amino)pyrido[2,3-d]pyrimidin-5(8H)-one]
		74%	94%	70%	96%	Cc1cc(-c2cccc3c(Cl)c([C@H](C)Nc4ncnc5[nH]ccc(=O)c45)n(-c4ccccc4)c(=O)c23)cc(C)c1O [Example 126, (S)-4-((1-(4-chloro-8-(4-hydroxy-3,5-dimethylphenyl)-1-oxo-2-phenyl-1,2-dihydroisoquinolin-3-yl)ethyl)amino)pyrido[2,3-d]pyrimidin-5(8H)-one]
		73%	82%	7%	41%	C[C@H](Nc1ncnc2[nH]ccc(=O)c12)c1cc2cccc(-c3ccc(N(C)C)nc3)c2c(=O)n1-c1ccccc1 [Example 264, (S)-4-((1-(8-(6-(dimethylamino)pyridin-3-yl)-1-oxo-2-phenyl-1,2-dihydroisoquinolin-3-yl)ethyl)amino)pyrido[2,3-d]pyrimidin-5(8H)-one]
		73%		66%		COc1cncc(-c2cccc3c(Cl)c([C@H](C)Nc4ncnc5[nH]ccc(=O)c45)n(-c4ccccc4)c(=O)c23)n1 [Example 204, (S)-4-((1-(4-chloro-8-(6-methoxypyrazin-2-yl)-1-oxo-2-phenyl-1,2-dihydroisoquinolin-3-yl)ethyl)amino)pyrido[2,3-d]pyrimidin-5(8H)-one]
		71%	101%	27%	71%	C[C@H](Nc1ncnc2[nH]ccc(=O)c12)c1c(Cl)c2cccc(C#Cc3cccs3)c2c(=O)n1-c1ccccc1 [Example 304, (S)-4-((1-(4-chloro-1-oxo-2-phenyl-8-(thiophen-2-ylethynyl)-1,2-dihydroisoquinolin-3-yl)ethyl)amino)pyrido[2,3-d]pyrimidin-5(8H)-one]
		22%	68%	10%	34%	C[C@H](Nc1ncnc2[nH]ccc(=O)c12)c1c(Cl)c2cccc(NCc3ccccc3)c2c(=O)n1-c1ccccc1 [Example 321, (S)-4-((1-(8-(benzylamino)-4-chloro-1-oxo-2-phenyl-1,2-dihydroisoquinolin-3-yl)ethyl)amino)pyrido[2,3-d]pyrimidin-5(8H)-one]
		89%		71%		COc1cc(-c2cccc3c(Cl)c([C@H](C)Nc4ncnc5[nH]ccc(=O)c45)n(-c4ccccc4)c(=O)c23)cc(OC)c1F [Example 154, (S)-4-((1-(4-chloro-8-(4-fluoro-3,5-dimethoxyphenyl)-1-oxo-2-phenyl-1,2-dihydroisoquinolin-3-yl)ethyl)amino)pyrido[2,3-d]pyrimidin-5(8H)-one]
90%	32%					C[C@H](Nc1ncnc2[nH]ccc(=O)c12)c1c(Cl)c2cccc(C(F)(F)F)c2c(=O)n1-c1ccccc1 [Example 389, (S)-4-((1-(4-chloro-1-oxo-2-phenyl-8-(trifluoromethyl)-1,2-dihydroisoquinolin-3-yl)ethyl)amino)pyrido[2,3-d]pyrimidin-5(8H)-one]
		58%		62%		COc1ncc(-c2cccc3c(Cl)c([C@H](C)Nc4ncnc5[nH]ccc(=O)c45)n(-c4ccccc4)c(=O)c23)cn1 [Example 171, (S)-4-((1-(4-chloro-8-(2-methoxypyrimidin-5-yl)-1-oxo-2-phenyl-1,2-dihydroisoquinolin-3-yl)ethyl)amino)pyrido[2,3-d]pyrimidin-5(8H)-one]
		45%		32%		Cc1ccsc1-c1cccc2c(Cl)c([C@H](C)Nc3ncnc4[nH]ccc(=O)c34)n(-c3ccccc3)c(=O)c12 [Example 243, (S)-4-((1-(4-chloro-8-(3-methylthiophen-2-yl)-1-oxo-2-phenyl-1,2-dihydroisoquinolin-3-yl)ethyl)amino)pyrido[2,3-d]pyrimidin-5(8H)-one]
		99%	112%	79%	99%	CCOC(=O)c1cccc2c(Cl)c([C@H](C)Nc3ncnc4[nH]ccc(=O)c34)n(-c3ccccc3)c(=O)c12 [Example 292, ethyl(S)-4-chloro-1-oxo-3-(1-((5-oxo-5,8-dihydropyrido[2,3-d]pyrimidin-4-yl)amino)ethyl)-2-phenyl-1,2-dihydroisoquinoline-8-carboxylate]
